In the supplement of paper PMC5908809:

Assays:
[1] = tested on: normal NK cells expanded with K562-aAPC; assay: percent inhibition of viability; higher = more inhibition; settings: 72 h, IL-2 2.5 ng/mL
Description: (§1)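 Drug sensitivity and resistance testing on K562-aAPC-expanded normal NK cells: 5 concentrations (10-fold steps over a 10,000-fold range), 72 h at 37 °C, viability by CellTiter-Glo normalised to DMSO and benzethonium chloride controls; DSS from the fitted curve.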

[2] = tested on: DERL-7 (IL-2 2.5 ng/mL); assay: as above; settings: 72 h
[3] = tested on: IMC-1 (IL-2 20 ng/mL); assay: as above; settings: 72 h
[4] = tested on: KAI3 (IL-2 2.5 ng/mL); assay: as above; settings: 72 h
[5] = tested on: KHYG-1 (IL-2 2.5 ng/mL); assay: as above; settings: 72 h
[6] = tested on: NK-92 (IL-2 2.5 ng/mL); assay: as above; settings: 72 h
[7] = tested on: NK-YS (IL-2 2.5 ng/mL); assay: as above; settings: 72 h
[8] = tested on: NKL (IL-2 2.5 ng/mL); assay: as above; settings: 72 h
[9] = tested on: SNK-6 (IL-2 2.5 ng/mL); assay: as above; settings: 72 h
[10] = tested on: YT (IL-2 2.5 ng/mL); assay: as above; settings: 72 h
[11] = tested on: normal primary NK cells, pool 1 (3 donors) (IL-2 2.5 ng/mL); assay: as above; settings: 72 h
[12] = tested on: normal primary NK cells, pool 1 (3 donors), resting (IL-2 0 ng/mL); assay: as above; settings: 72 h
[13] = tested on: normal primary NK cells, pool 2 (3 donors) (IL-2 2.5 ng/mL); assay: as above; settings: 72 h
[14] = tested on: normal primary NK cells, pool 3 (3 donors) (IL-2 2.5 ng/mL); assay: as above; settings: 72 h
[15] = tested on: normal NK cells expanded with K562-aAPC; assay: drug sensitivity score (DSS) (DSS units); higher = more sensitive; extreme values may be limits of the assay; settings: 72 h; IL-2 2.5 ng/mL
Description: as §1

[16] = tested on: DERL-7 (IL-2 2.5 ng/mL); assay: as above; settings: 72 h
[17] = tested on: IMC-1 (IL-2 20 ng/mL); assay: as above; settings: 72 h
[18] = tested on: KAI3 (IL-2 2.5 ng/mL); assay: as above; settings: 72 h
[19] = tested on: KHYG-1 (IL-2 2.5 ng/mL); assay: as above; settings: 72 h
[20] = tested on: NK-92 (IL-2 2.5 ng/mL); assay: as above; settings: 72 h
[21] = tested on: NK-YS (IL-2 2.5 ng/mL); assay: as above; settings: 72 h
[22] = tested on: NKL (IL-2 2.5 ng/mL); assay: as above; settings: 72 h
[23] = tested on: SNK-6 (IL-2 2.5 ng/mL); assay: as above; settings: 72 h
[24] = tested on: YT (IL-2 2.5 ng/mL); assay: as above; settings: 72 h
[25] = tested on: normal primary NK cells, pool 1 (3 donors) (IL-2 2.5 ng/mL); assay: as above; settings: 72 h
[26] = tested on: normal primary NK cells, pool 1 (3 donors), resting (IL-2 0 ng/mL); assay: as above; settings: 72 h
[27] = tested on: normal primary NK cells, pool 2 (3 donors) (IL-2 2.5 ng/mL); assay: as above; settings: 72 h
[28] = tested on: normal primary NK cells, pool 3 (3 donors) (IL-2 2.5 ng/mL); assay: as above; settings: 72 h

COc1cc([C@@H]2c3cc4c(cc3[C@@H](O[C@@H]3O[C@@H]5CO[C@@H](c6cccs6)O[C@H]5[C@H](O)[C@H]3O)[C@H]3COC(=O)[C@H]23)OCO4)cc(OC)c1O [Teniposide] (max concentration tested 10000 nM)
percent inhibition of viability [%]
Settings | 1 nM | 10 nM | 100 nM | 1000 nM | 10000 nM
[1] | -1.49 | 7.42 | 51.3 | 59.8 | 99.4
[2] | 5.54 | 34.5 | 94.9 | 80.3 | 99.3
[3] | -1.21 | 18.8 | 95.9 | 99.6 | 99
[4] | -5.63 | 32.8 | 80.1 | 75.3 | 92.2
[5] | 1.47 | 13.1 | 91.5 | 102 | 94.4
[6] | -21.1 | 0.94 | 59.8 | 99.7 | 90.3
[7] | 4.54 | 29.4 | 82.5 | 79.9 | 75.7
[8] | 0.79 | 49.3 | 98.3 | 98.7 | 89.8
[9] | 5.23 | 16.8 | 78.2 | 95.8 | 94.7
[10] | 0.75 | -4.25 | 36.1 | 95.3 | 91.5
[11] | 2.23 | -5.23 | 11.2 | 66.3 | 96.6
[12] | -23.6 | -9.41 | 27.9 | 90.8 | 91.2
[13] | -11.9 | -5.76 | 2.6 | 48.4 | 93.9
[14] | -13.8 | -4.37 | 3.23 | 36.7 | 97

Settings | drug sensitivity score
[15] | 18.8
[16] | 33.5
[17] | 32.6
[18] | 29.9
[19] | 30.9
[20] | 25
[21] | 29.3
[22] | 36.2
[23] | 28.5
[24] | 22.1
[25] | 14
[26] | 20.6
[27] | 11
[28] | 10.1

CNC(=O)c1ccc(N2C(=S)N(c3ccc(C#N)c(C(F)(F)F)c3)C(=O)C2(C)C)cc1F [Enzalutamide] (max concentration tested 10000 nM)
percent inhibition of viability [%]
Settings | 1 nM | 10 nM | 100 nM | 1000 nM | 10000 nM
[1] | -2.32 | -10.8 | -8.2 | -6.11 | -8.96
[2] | -1.7 | -4.09 | -9.3 | -2.76 | -5
[3] | -3.38 | 0.92 | -2.2 | -1.9 | 18.3
[4] | -6.43 | -7.59 | -3.84 | -14.2 | -5.9
[5] | -6.93 | -4.23 | -3.55 | -6.97 | 4.84
[6] | 1.65 | -8.18 | -6.81 | -3.14 | 20.8
[7] | -6.5 | -3.69 | -3.22 | -8.67 | 5.9
[8] | -2.17 | -13.2 | -14 | -9.34 | 1.3
[9] | 12.3 | 20.8 | -9.97 | 42.2 | 17.6
[10] | -1.41 | -1.46 | -3.16 | -4.82 | 3.56
[11] | -3.9 | 0.9 | -0.41 | -2.29 | 4.21
[12] | 7.62 | -0.58 | -1.62 | 6.1 | 31.6
[13] | -10.2 | -3.87 | -13.1 | -6.47 | 3.77
[14] | -14.6 | -16.8 | -6.74 | -9.3 | -4.81

Settings | drug sensitivity score
[15] | 0
[16] | 0
[17] | 0.37
[18] | 0
[19] | 0
[20] | 0.49
[21] | 0
[22] | 0
[23] | 4.37
[24] | 0
[25] | 0
[26] | 2.39
[27] | 0
[28] | 0

O=C(c1ccc(/C=C/c2n[nH]c3ccccc23)cc1)N1CCNCC1 [KW-2449] (max concentration tested 2500 nM)
percent inhibition of viability [%]
Settings | 0.25 nM | 2.5 nM | 25 nM | 250 nM | 2500 nM
[1] | 1.55 | -7.82 | -4.83 | -5.26 | 33
[2] | -3.07 | -3.42 | -0.35 | -5.82 | 52
[3] | -4.33 | -2.55 | -3.12 | -4.5 | -8.66
[4] | -7.2 | -3.33 | -4.86 | -5.15 | 12.8
[5] | -4.37 | -3.8 | -7.48 | -0.63 | 63.4
[6] | -17.7 | -18 | -20.5 | -12.6 | 18.9
[7] | -5.66 | -7.24 | -6.03 | 0.88 | 42.9
[8] | -16.7 | -15.7 | -8.73 | -17 | 8.68
[9] | 11.8 | 9.47 | 14.2 | 3.56 | 67.5
[10] | 0.95 | 1.96 | -2.99 | -1.32 | 9
[11] | 0.56 | -11.2 | -7.09 | -3.29 | 23.3
[12] | -12.6 | 0.69 | -21.6 | -1.76 | -0.59
[13] | 0.9 | -1.16 | -5.56 | -9.38 | 13.4
[14] | -10.8 | -6.97 | -9.8 | -18.2 | -0.01

Settings | drug sensitivity score
[15] | 1.2
[16] | 2.35
[17] | 0.89
[18] | 0.03
[19] | 3.4
[20] | 0.25
[21] | 2.28
[22] | 0
[23] | 4.22
[24] | 0
[25] | 0.65
[26] | 0
[27] | 0.03
[28] | 0.89
